Results on 16 compounds are retold here after ChEMBL document CHEMBL1201862, “PubChem BioAssay data set” (2004).

Values joined by “and” are separate entries in the source; they are usually repeats but may differ in a detail not shown here. Identical values can stand only once. Counter-ions that a name gives are not always drawn. Active and inactive are the calls of the source.

A short description of assay [1]: HIV Env cell-cell fusion inhibitors, dose response, HIV entry, plate reader, dry powder (AID 687023). In kind it is functional, cell-based.
Assay [2] can be described thus: CEM21 lymphoblast cell cytotoxicity, dose response, cytotoxicity control for viral fusion inhibitor project, CellTiter-Glo luminescence, cherry-picked (AID 652042).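 Note: potency for signal decrease meaning cytotoxicity.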 In kind it is functional, cell-based.
A short description of assay [3]: CEM21 cell cytotoxicity, dose response, cytotoxicity control, plate reader, dry powder (AID 687026). Format: functional, cell-based.
Assay [4] can be described thus: inhibitors of clade B AD8 Env fusion, dose response, cell-based, cherry-pick (AID 652062).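 Note: luciferase signal from cell-cell fusion driven by HIV-1 clade B AD8 Env; potency is for inhibitors of fusion seen as a drop in luminescence.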 In kind it is functional.
Assay [5] in a line: off-target signal loss in HeLa-CEM21 co-culture – HeLa F-luc CTL cells, cherry-picked, counter-screen for HIV-1 Env fusion inhibitor project, dose response (AID 652040).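 Note: potency for signal decrease marking cytotoxic or nonspecific inhibition.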 Format: functional, cell-based.
The nature of assay [6]: inhibitors of HIV Env-driven cell fusion, dose response, cherry-pick (AID 652057). In kind it is functional, cell-based.
Assay [7] is described as follows: reduction of Shn3 3'UTR firefly luciferase signal, dose response, Schnurri-3 inhibitor project, cell-based, Clone20 osteoblasts, cherry-pick, set 2 (AID 720490).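 Note: actives lower the luminescence signal as inhibitors.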 Format: functional.
Assay [8] can be described thus: control 3'UTR Renilla luciferase suppression, dose response, counter-screen for Shn3 inhibitor project, cell-based, Clone20-Shn3RL, cherry-picked (AID 624133). In kind it is functional.
The nature of assay [9]: Shn3 3'UTR reporter inhibitors, dose response, cell-based, Clone20 osteoblasts, firefly luciferase, cherry-picked (AID 624132).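 Note: firefly luciferase luminescence from reporter carrying the Shn3 3'UTR in osteoblasts.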 In kind it is functional.
The nature of assay [10]: HepG2 cell cytotoxicity, dose response, cytotoxicity control for Shn3 inhibitor project, CellTiter-Glo, cherry-picked (AID 624134). Format: functional, cell-based. (In general: Cellular ATP, detected with luciferase, serves as a proxy for viable cell number.)
In assay [11] the target is Matrix metalloproteinase-14 (Homo sapiens, UniProt P50281). The experiment in a line: Dose Response confirmation of uHTS hits for a small molecule inhibitors of MT1-MMP activation in a fluorescence assay set 1. In kind it is functional.
Assay [12] concerns the target T1, Oxysterols receptor LXR-beta (Homo sapiens, UniProt P55055).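 Note: agonist activity at LXR measured by a cell-based luminescence readout across a dose range, run as a counterscreen for daf-12 agonists; HEK293 cells with Gal4-LXR fusion and GAL4-driven luciferase reporter; potency for activation of Gal4-LXR reporter so compounds are agonists.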
T1 sequence (P55055 whole entry): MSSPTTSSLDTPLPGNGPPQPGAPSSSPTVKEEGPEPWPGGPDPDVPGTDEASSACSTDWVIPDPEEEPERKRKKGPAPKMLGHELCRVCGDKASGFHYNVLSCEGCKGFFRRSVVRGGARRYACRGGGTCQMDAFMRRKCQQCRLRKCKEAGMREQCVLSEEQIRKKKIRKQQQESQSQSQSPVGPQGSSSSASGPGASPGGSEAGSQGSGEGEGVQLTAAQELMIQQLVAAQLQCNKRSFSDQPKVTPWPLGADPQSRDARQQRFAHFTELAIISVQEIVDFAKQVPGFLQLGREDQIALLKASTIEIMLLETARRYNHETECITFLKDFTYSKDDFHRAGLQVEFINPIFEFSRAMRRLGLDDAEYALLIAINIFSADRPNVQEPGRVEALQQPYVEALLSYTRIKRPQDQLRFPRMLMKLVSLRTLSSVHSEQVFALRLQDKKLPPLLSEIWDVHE
In kind it is functional, cell-based.

Assay [13] concerns the target T2, Disintegrin and metalloproteinase domain-containing protein 17 (Homo sapiens, UniProt P78536). The experiment in a line: ADAM17 protease inhibitors, dose response, counter-screen for ADAM10 exosite inhibitor project, biochemical, quenched FRET substrate (AID 743253). In general terms: Counterscreens check selectivity or assay interference.
Assay [14] in a line: ADAM10 inhibitors, peptide cleavage, dose response, biochemical, QFRET (AID 743254).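 Note: ADAM10 enzyme with the DM2 quenched FRET peptide as substrate; EDANS fluorescence gain as the protease cuts the substrate; inhibitor potency against ADAM10 proteolytic activity.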
Assay [15] deals with Acyl-protein thioesterase 1 (Homo sapiens, UniProt O75608). In words: Late stage assay provider results from the probe development effort to identify selective inhibitors of LYPLA1: fluorescence-based biochemical dose-response assay.
Sequence of Acyl-protein thioesterase 1 (O75608 whole entry): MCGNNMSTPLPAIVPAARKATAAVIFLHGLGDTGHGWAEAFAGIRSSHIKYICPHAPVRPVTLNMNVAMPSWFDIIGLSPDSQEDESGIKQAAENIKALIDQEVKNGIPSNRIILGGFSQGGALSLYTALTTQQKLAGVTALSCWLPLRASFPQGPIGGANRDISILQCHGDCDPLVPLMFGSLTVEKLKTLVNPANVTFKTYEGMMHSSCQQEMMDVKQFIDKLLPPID
The nature of assay [16]: A cytotoxicity screen of small molecule inhibitors of the PhoP region in Salmonella typhi identified in the primary screen. [Related pubchem assays: 1850, 1864, 1985 ]. In kind it is functional.
Assay [17] has as its target 1-phosphatidylinositol 4,5-bisphosphate phosphodiesterase beta-3 (Homo sapiens, UniProt Q01970). In words: Fluorescence-based biochemical high throughput dose response assay to identify inhibitors of phospholipase C isozymes (PLC-B3).
Assay [18] has as its target 1-phosphatidylinositol 4,5-bisphosphate phosphodiesterase gamma-1 (Homo sapiens, UniProt P19174). The experiment in a line: Counterscreen for inhibitors of phospholipase C isozymes (PLC-B3): Fluorescence-based biochemical high throughput dose response assay to identify inhibitors of phospholipase C isozymes (PLC-gamma1).
The next assay can be described thus: cells. The following applies: A549.
A short description of assay [19]: inhibitors of fibronectin matrix deposition, dose response, AH1F cells, Alexa488-FN fluorescence, cherry-picks (AID 1035475). In kind it is functional, cell-based.
Assay [20] in a line: A549 cell cytotoxicity, dose response, cytotoxicity control, cherry-picks, 26 µM top dose (AID 1053119). In kind it is functional, cell-based.
Another assay has as its system HEK293. The experiment in a line: HEK293T cell cytotoxicity, dose response, cytotoxicity control, ATP luminescence, cherry-pick samples (AID 687005).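 Note: cells exposed to compound for 48 hours.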 In kind it is functional, cell-based. The following applies: Homo sapiens.
The nature of assay [21]: HEK293 Cytotoxicity Assay Measured in Cell-Based System Using Plate Reader - 7071-01_Inhibitor_Dose_CherryPick_Activity_Set2. In kind it is functional.
The nature of assay [22]: HEK293 cell cytotoxicity, dose response, cytotoxicity control, cherry-picks, set 5 (AID 1053117). In kind it is functional, cell-based.
Assay [23] in a line: HEK293T cytotoxicity, dose response, cytotoxicity control for miR-122 modulator project, cell-based, activator set, cherry-pick (AID 720690).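 Note: HEK293T human cells scored for general mammalian cytotoxicity.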 Format: functional.
A short description of assay [24]: HepG2 cell cytotoxicity, dose response, cytotoxicity control, cherry-picks, set 5 (AID 1053118). In kind it is functional, cell-based.
Assay [25] is described as follows: miR-122 activators in hepatoma reporter cells, dose response, cell-based, Huh7 psiCHECK-miR122, Renilla luciferase, cherry-picked (AID 651956).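 Note: huh7 hepatoma cells stably carrying a psiCHECK-2 miR-122 sensor plasmid; renilla luciferase signal reporting endogenous miR-122 activity after 48 h compound exposure.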 Format: functional.
Assay [26] is described as follows: CTGF mRNA reduction under YAP1 overexpression, dose response, mechanism study for YAP1 pathway inhibitor project, DLD1 cells, RT-qPCR, cherry-pick (AID 1053127). Format: functional, cell-based. The following applies: DLD-1.
In assay [27] the target is Potassium channel subfamily K member 3 (Homo sapiens, UniProt O14649). In words: TASK1 (KCNK3) potassium channel inhibitors, SAR follow-up, CHO cells, FluxOR thallium flux (AID 652212). In kind it is functional.
Assay [28] addresses NAD-dependent protein deacylase sirtuin-5, mitochondrial (Homo sapiens, UniProt Q9NXA8). In words: SIRT5 deacylase inhibitors, dose response, biochemical, fluorescence imaging, cherry-pick, set 6 (AID 720597).
The next assay has as its target Vasopressin V2 receptor (Homo sapiens, UniProt P30518). The experiment in a line: Late-stage results from the probe development effort to identify antagonists of arginine vasopressin receptor 1a (AVPR1a): fluorescence-based cell-based dose response AVPR2 inhibition counterscreen assay. In kind it is functional.
Another assay deals with Vasopressin V1b receptor (Homo sapiens, UniProt P47901). The experiment in a line: Late-stage results from the probe development effort to identify antagonists of arginine vasopressin receptor 1a (AVPR1a): fluorescence-based cell-based dose response AVPR1b inhibition counterscreen assay. In kind it is functional.
Sequence of Vasopressin V1b receptor (P47901 whole entry): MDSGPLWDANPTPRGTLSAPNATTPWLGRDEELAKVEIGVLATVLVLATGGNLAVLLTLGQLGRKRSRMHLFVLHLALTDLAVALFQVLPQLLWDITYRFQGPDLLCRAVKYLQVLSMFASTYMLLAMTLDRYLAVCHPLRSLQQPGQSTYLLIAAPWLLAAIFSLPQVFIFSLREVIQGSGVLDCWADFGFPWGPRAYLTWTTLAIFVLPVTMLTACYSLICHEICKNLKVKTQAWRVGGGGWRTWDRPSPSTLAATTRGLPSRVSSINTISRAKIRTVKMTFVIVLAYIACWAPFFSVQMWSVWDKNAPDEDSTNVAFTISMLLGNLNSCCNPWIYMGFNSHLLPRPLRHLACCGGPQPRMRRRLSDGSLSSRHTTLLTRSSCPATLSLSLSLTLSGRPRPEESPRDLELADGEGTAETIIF
The nature of assay [29]: Late-stage results from the probe development effort to identify antagonists of arginine vasopressin receptor 1a (AVPR1a): fluorescence-based cell-based dose response OXTR inhibition counterscreen assay. In kind it is functional.
Assay [30] is described as follows: Late-stage results from the probe development effort to identify antagonists of arginine vasopressin receptor 1a (AVPR1a): fluorescence-based cell-based dose response AVPR1a inhibition assay. Format: functional.
In assay [31] the target is T2, Disintegrin and metalloproteinase domain-containing protein 17. In words: exosite inhibitors of ADAM17, dose response, biochemical (AID 743260).
The nature of assay [32]: ADAM10 protease inhibitors, dose response, selectivity assay for ADAM17 exosite inhibitor project, biochemical, FRET peptide substrate, recombinant human ADAM10 (AID 743259).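 Note: ADAM10 enzyme cleaving a FRET peptide substrate.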
The target of a further assay is fMet-Leu-Phe receptor (Homo sapiens, UniProt P21462). The experiment in a line: FPR ligands, dose response (AID 519). In kind it is functional.
Sequence of fMet-Leu-Phe receptor (P21462 whole entry): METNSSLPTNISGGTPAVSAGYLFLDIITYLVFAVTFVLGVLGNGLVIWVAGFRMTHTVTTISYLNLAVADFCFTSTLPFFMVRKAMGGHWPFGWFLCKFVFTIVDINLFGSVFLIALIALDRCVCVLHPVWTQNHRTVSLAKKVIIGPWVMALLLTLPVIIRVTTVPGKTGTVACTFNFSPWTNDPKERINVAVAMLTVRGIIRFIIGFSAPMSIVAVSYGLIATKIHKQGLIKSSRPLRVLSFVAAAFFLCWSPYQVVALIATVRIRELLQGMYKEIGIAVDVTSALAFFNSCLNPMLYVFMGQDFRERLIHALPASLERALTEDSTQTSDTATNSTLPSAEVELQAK

T2 sequence (P78536 whole entry, the tested form may be a part): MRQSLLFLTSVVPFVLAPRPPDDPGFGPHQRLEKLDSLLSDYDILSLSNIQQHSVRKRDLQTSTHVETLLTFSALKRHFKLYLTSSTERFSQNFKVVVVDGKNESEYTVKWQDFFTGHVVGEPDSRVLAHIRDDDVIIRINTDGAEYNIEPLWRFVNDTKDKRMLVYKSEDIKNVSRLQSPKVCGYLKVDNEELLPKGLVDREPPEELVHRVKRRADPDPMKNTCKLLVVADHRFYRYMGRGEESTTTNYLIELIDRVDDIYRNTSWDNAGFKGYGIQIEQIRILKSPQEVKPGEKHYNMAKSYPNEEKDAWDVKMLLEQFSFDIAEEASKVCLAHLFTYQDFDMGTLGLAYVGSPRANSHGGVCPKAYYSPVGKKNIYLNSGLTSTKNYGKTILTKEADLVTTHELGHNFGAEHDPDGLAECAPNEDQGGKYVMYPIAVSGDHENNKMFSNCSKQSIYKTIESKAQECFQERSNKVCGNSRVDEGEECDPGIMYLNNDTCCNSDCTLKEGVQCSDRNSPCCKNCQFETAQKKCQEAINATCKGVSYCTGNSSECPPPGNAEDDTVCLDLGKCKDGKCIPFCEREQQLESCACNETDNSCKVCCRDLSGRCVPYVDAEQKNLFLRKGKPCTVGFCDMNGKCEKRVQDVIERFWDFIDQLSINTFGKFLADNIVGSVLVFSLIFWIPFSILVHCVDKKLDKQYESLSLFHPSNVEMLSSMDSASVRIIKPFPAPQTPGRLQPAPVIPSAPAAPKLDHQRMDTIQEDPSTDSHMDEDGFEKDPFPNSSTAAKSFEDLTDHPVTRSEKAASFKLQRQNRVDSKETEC
Sequence of NAD-dependent protein deacylase sirtuin-5, mitochondrial (Q9NXA8 whole entry): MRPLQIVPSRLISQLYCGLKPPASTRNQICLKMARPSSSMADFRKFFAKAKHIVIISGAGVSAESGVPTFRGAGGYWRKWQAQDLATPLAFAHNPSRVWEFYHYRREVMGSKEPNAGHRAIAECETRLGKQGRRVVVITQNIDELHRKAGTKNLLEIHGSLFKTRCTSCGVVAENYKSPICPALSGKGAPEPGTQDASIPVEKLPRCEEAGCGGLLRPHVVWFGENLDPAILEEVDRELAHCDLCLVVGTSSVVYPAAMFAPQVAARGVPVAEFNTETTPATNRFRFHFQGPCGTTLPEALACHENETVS
Sequence of 1-phosphatidylinositol 4,5-bisphosphate phosphodiesterase beta-3 (Q01970 whole entry): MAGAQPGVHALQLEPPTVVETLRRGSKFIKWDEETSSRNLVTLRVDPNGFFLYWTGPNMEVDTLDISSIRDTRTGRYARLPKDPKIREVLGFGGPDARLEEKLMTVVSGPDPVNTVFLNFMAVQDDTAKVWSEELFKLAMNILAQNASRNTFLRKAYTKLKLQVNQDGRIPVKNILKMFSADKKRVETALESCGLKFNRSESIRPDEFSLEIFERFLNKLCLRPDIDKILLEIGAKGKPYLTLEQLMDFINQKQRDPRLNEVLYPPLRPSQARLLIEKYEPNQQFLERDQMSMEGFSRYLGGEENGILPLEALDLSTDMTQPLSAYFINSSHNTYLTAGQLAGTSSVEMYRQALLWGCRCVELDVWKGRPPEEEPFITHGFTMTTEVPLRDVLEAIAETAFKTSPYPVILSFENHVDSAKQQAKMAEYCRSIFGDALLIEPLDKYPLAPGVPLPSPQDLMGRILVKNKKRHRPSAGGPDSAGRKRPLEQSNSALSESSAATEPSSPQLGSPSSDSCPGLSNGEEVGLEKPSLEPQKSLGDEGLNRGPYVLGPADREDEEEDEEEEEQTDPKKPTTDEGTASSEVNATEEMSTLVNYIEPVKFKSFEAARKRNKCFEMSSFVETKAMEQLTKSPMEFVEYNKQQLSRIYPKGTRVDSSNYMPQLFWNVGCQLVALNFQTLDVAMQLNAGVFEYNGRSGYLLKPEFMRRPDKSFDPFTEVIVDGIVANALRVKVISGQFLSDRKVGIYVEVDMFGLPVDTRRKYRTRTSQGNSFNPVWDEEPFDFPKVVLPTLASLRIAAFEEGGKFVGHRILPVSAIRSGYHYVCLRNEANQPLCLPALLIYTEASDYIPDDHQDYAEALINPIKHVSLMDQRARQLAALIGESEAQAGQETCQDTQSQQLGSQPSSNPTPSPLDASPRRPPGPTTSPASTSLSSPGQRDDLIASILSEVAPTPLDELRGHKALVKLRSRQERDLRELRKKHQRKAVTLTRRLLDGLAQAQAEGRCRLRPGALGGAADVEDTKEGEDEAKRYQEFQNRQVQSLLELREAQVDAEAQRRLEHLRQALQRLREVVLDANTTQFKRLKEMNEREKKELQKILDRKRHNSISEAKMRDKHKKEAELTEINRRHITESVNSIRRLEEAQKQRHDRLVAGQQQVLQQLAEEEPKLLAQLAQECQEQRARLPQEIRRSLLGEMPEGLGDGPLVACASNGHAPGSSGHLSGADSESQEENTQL
Sequence of 1-phosphatidylinositol 4,5-bisphosphate phosphodiesterase gamma-1 (P19174 whole entry): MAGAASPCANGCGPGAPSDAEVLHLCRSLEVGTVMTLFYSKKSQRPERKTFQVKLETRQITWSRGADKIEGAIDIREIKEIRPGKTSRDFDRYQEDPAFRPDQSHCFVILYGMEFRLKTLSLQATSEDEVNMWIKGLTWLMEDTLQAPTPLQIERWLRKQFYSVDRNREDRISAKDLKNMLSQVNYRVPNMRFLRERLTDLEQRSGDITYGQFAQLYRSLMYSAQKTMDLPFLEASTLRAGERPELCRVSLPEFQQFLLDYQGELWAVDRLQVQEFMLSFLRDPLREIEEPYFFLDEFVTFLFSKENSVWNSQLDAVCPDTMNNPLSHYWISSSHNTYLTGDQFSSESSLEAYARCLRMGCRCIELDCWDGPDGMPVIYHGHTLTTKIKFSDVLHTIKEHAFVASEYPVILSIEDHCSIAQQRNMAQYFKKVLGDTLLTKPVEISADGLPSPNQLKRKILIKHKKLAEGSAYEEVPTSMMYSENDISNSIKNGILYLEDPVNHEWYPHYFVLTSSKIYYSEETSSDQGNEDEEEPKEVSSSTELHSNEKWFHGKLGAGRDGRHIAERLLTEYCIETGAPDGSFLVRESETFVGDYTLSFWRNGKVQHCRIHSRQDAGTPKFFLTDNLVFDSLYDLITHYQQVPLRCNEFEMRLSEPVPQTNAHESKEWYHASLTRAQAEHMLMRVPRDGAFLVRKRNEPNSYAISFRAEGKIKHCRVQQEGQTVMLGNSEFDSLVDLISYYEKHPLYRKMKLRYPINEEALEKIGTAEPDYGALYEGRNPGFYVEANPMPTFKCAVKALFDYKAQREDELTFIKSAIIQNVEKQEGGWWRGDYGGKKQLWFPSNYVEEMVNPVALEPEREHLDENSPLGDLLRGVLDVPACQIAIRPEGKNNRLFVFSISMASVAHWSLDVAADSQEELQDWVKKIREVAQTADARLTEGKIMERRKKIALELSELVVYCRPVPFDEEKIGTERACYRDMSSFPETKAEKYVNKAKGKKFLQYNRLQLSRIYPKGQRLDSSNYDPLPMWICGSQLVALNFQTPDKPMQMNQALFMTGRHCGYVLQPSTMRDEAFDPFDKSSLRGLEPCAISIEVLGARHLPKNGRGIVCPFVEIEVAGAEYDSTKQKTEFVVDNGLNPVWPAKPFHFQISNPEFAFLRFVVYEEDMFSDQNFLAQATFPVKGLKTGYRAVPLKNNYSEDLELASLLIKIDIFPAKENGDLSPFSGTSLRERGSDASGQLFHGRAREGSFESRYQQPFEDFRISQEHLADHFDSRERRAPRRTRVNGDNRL
Sequence of Vasopressin V2 receptor (P30518 whole entry): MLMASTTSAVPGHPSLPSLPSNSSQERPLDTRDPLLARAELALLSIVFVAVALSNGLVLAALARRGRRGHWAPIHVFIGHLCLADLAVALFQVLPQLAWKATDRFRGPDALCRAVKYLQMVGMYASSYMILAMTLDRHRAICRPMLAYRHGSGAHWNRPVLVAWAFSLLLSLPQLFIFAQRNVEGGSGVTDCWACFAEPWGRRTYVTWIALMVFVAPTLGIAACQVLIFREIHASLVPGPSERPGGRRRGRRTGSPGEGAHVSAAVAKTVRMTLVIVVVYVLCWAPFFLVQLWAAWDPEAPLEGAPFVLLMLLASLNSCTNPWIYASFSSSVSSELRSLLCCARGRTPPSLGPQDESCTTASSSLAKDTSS

Regarding `CC(=O)Nc1ccc(NC(=O)CN(c2ccc(C34CC5CC(CC(C5)C3)C4)cc2)S(C)(=O)=O)cc1`, the concentration at half-maximal activity (AC50) in assay [1] was 7.68 µM (active) and 9 µM (active); in [2], 57.7 µM (active); in assay [3], 50.4 µM (active); in assay [4], 5.78 µM (active); in [5] it was > 70 µM (inactive); in [6], 2.87 µM (active).

Regarding `CNc1ccccc1C(C)(C)c1cc(-c2cccc(OC)c2)no1`, the AC50 is 1.82 µM (active) in assay [7], 9.49 µM (active) in assay [8], 1.92 µM (active) in assay [9] and 56.8 µM (active) in [10]. Further, the IC50 in [11] was > 80 µM (inactive).

For the compound `Cn1c(O)c(N=NC(=O)c2ccco2)c2ccccc21`, the EC50 in assay [12] was > 67.5 µM (inactive).

In the case of `COc1ccc(-c2[nH]nc(C)c2-c2cnn(-c3ccccc3)c2)c(O)c1C`, the IC50 in [13] is > 69.5 µM (inactive); in assay [14] it was > 7.72 µM (active).

Turning to `COc1ccc(N2CCN(C(=O)c3cc4c(s3)-c3ccccc3S(=O)(=O)C4)CC2)cc1`, in assay [15], the IC50 is > 10 µM (inactive). For the same compound, in assay [16], the EC50 is > 50 µM (active).

For the compound `COc1cccc(C(=O)Nc2ccc(-n3nncc3C(C)(C)C)cc2)c1`, the IC50 in [17] and in assay [18] was > 122 µM (inactive) each time.

`Fc1ccc(-c2nc3ccccn3c2NCc2ccc3c(c2)OCO3)cc1`: in “cells”, the AC50 was > 52 µM (inactive).

Take `O=C(NCc1ccccc1)c1ccc(-c2cn[nH]c2)c2ccoc12`: the results for the AC50 in assay [19] and in assay [20] were 0.142 µM (active) and > 52 µM (inactive), respectively.

Consider `C[C@H]1CN([C@@H](C)CO)S(=O)(=O)c2ccc(Br)cc2O[C@@H]1CN(C)S(=O)(=O)c1ccccc1F`, for which the AC50 (in the assay on HEK293; in [21]) was 15.7 µM (active) throughout.

On to `CO[C@@H]1CN(C)C(=O)c2cc(NC(=O)Nc3cc(Cl)cc(Cl)c3)ccc2OC[C@H](C)NC[C@H]1C`, for which the half-maximal activity concentration (AC50) was 29 µM (active) in assay [19]; 12.8 µM (active) in assay [22]; 17.6 µM (active) in [23]; 10.9 µM (active) in assay [24]; 10.1 µM (active) in assay [25].

Turning to `CS(=O)(=O)N1CC(=O)N2[C@H](C1)[C@@H](c1ccc(C#Cc3ccc(F)cc3)cc1)[C@@H]2CO`, the AC50 in [26] was > 26 µM (inactive).

As for `CCOc1ccc(NC(=O)c2cccc(NC(=O)C3CCCC3)c2)cc1`, the IC50 in assay [27] is 0.07 µM (active).

As for `Cc1ccc(S(=O)(=O)N(C)C[C@H]2OCCCC[C@H](C)Oc3ccc(NS(=O)(=O)c4ccc(F)cc4)cc3C(=O)N([C@@H](C)CO)C[C@H]2C)cc1`, the AC50 in assay [28] is > 30 µM (inactive).

As to `COc1ccc(N(CC2CC2)C(=O)N2CCN(c3ccccc3C(F)(F)F)CC2)cc1`, the IC50 on Vasopressin V2 receptor was 8.41 µM (active); at Vasopressin V1b receptor, 17.9 µM (inactive); in [29] it was 0.12 µM (active); in assay [30] it was 0.0588 µM (active).

Take `CCOc1ccc(CNC(=S)N/N=C/c2ccc(OC)c(OC)c2)cc1`: the IC50 in assay [31] and in [32] was > 69.5 µM (inactive) each time.

In the case of `CCN(CCCc1ccccc1)CCCc1ccccc1` [ALVERINE CITRATE], the Ki on fMet-Leu-Phe receptor is > 66.7 µM (inactive).

By AC50 is commonly meant the midpoint of the concentration-response curve, whichever way the signal moves. Usually IC50 stands for the concentration that inhibits the measured activity by half. For orientation: EC50 means the concentration at which the effect is half-maximal. For orientation: Ki means a measure of affinity in units of concentration, obtained from inhibition or displacement.
